target: T1, Human GPR120 short form (Homo sapiens, UniProt Q5NUL3); assay: Human GPR120 calcium flux assay, Procedure Calcium B; type: cell-based; conditions: HEK-293 cells expressing human GPR120 short form, 4200 cells/well, FLIPR
T1 construct: expressed in transfected cells
T1 sequence (Q5NUL3 1-361): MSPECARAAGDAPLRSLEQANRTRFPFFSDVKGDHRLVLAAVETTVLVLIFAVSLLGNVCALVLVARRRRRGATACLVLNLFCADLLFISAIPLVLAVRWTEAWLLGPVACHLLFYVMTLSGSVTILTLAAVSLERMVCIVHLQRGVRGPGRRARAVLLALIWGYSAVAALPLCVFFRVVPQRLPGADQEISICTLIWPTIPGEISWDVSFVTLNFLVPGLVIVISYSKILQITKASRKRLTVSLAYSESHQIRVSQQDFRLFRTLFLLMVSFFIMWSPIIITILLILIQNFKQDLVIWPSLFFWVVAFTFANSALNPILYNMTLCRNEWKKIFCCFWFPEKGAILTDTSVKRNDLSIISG

In order of falling EC50:
1. OCCCc1ccc(OCc2c(C(F)(F)F)ccn2-c2ccc(Cl)cc2)c(F)c1F [Compound 29, 3-(4-{[1-(4-Chlorophenyl)-3-(trifluoromethyl)-1H-pyrrol-2-yl]methoxy}-2,3-difluorophenyl)propan-1-ol]  162 nM
2. Cc1ccc(-n2ccc(C(F)(F)F)c2COc2c(F)cc(CCC(=O)O)cc2F)cc1 [Compound 39, 3-(3,5-difluoro-4-[[1-(4-methylphenyl)-3-(trifluoromethyl)-1H-pyrrol-2-yl]methoxy]phenyl)propanoic acid]  50 nM
3. CCc1ccc(-n2ccc(C(F)(F)F)c2COc2ccc(CCC(=O)O)c(F)c2F)cc1 [Compound 34, 3-(4-[[1-(4-ethylphenyl)-3-(trifluoromethyl)-1H-pyrrol-2-yl]methoxy]-2,3-difluorophenyl)propanoic acid]  40 nM
